# Data published in patent US6509328B1, “Glutamate receptor antagonists” (Hoffmann-La Roche Inc., priority 1999, dated 2003).
row,Compound,melting point
1,"Cc1ccccc1-c1ccc2c(c1)NC(=O)CC(c1sccc1Cl)=N2 [Example 34, 4-(3-Chloro-thiophen-2-yl)-8-o-tolyl-1,3-dihydro-benzo [b][1,4]diazepin-2-one]",247 to 248 °C (dec.)
2,"N#Cc1cccc(C2=Nc3ccc(C#CC4=CC(=O)CCC4)cc3NC(=O)C2)c1 [Example 144, 3-[4-Oxo-7-(3-oxo-cyclohex-1-enylethynyl)-4,5-dihydro-3H-benzo [b][1,4]diazepin-2-yl]-benzonitrile]",110 °C
3,"Cc1cn(-c2cccc(C3=Nc4ccc(C#Cc5ccc(F)cc5)cc4NC(=O)C3)c2)cn1 [Example 78, 8-(4-Fluoro-phenylethynyl)-4-[3-(4-methyl-imidazol-1-yl)-phenyl]-1,3-dihydro-benzo [b][1,4]diazepin-2-one]",210 °C
4,"COc1ccc(-c2ccc3c(c2)NC(=O)CC(c2cccc(-n4ccnc4)c2)=N3)cc1 [Example 61, 4-(3-Imidazol-1-yl-phenyl)-8-(4-methoxy-phenyl)-1,3-dihydro-benzo [b][1,4]diazepin-2-one]",207 to 208 °C
5,"Cc1cn(-c2nc(C3=Nc4ccc(-c5ccc(F)cc5)cc4NC(=O)C3)cs2)cn1 [Example 107, 8-(4-Fluoro-phenyl)-4-[2-(4-methyl-imidazol-1-yl)-thiazol-4-yl]-1,3-dihydro-benzo[b][1,4]diazepin-2-one]",229 °C
6,"N#Cc1cccc(C2=Nc3ccc(-c4ccc(Cl)cc4)cc3NC(=O)C2)c1 [Example 15, 3-[7-(4-Chloro-phenyl)-4-oxo-4,5-dihydro-3H-benzo[b][1,4]diazepin-2-yl]-benzonitrile]",244 to 250 °C (dec.)
7,"Cc1nc(-c2cccc(C3=Nc4ccc(-c5ccc(F)cc5)cc4NC(=O)C3)c2)sc1C(=O)NCCO [Example 162, 2-{3-[7-(4-Fluoro-phenyl)-4-oxo-4,5-dihydro-3H-benzo [b][1,4]diazepin-2-yl]-phenyl}-4-methyl-thiazole-5-carboxylic Acid (2-hydroxy-ethyl)-amide]",248 to 251 °C (dec.)
8,"COc1ccc(-c2ccc3c(c2)NC(=O)CC(c2cccc(C#N)c2)=N3)cc1 [Example 6, 3-[7-(4-Methoxy-phenyl)-4-oxo-4,5-dihydro-3H-benzo[b][1,4]diazepin-2-yl]-benzonitrile]",236 to 237 °C (dec.)
9,"O=C1CC(c2cccc(-c3noc(CCCO)n3)c2)=Nc2ccc(-c3ccc(F)cc3)cc2N1 [Example 168, 8-(4-Fluoro-phenyl)-4-{3-[5-(3-hydroxy-propyl)-[1,2,4]oxadiazol-3-yl]-phenyl}-1,3-dihydro-benzo[b][1,4]diazepin-2-one]",220 to 222 °C
10,"N#Cc1cccc(C2=Nc3ccc(C#CC4=CCOCC4)cc3NC(=O)C2)c1 [Example 138, 3-[7-(3,6-Dihydro-2H-pyran-4-ylethynyl)-4-oxo-4,5-dihydro-3H-benzo [b][1,4]diazepin-2-yl]-benzonitrile]",238 °C
11,"O=C1CC(c2cccc(Cl)c2)=Nc2ccc(-c3ccccc3)cc2N1 [Example 19, 4-(3-Chloro-phenyl)-8-phenyl-1,3-dihydro-benzo[b][1,4]diazepin-2-one]",208 °C (dec.)
12,"O=C1CC(c2ccsc2)=Nc2ccc(-c3ccccc3)cc2N1 [Example 29, 8-Phenyl-4-thiophen-3-yl-1,3-dihydro-benzo [b][1,4]diazepin-2-one]",233 °C (dec.)
13,"Nc1cccc(C2=Nc3ccc(-c4ccc(F)cc4)cc3NC(=O)C2)c1 [Example 70, 4-(3-Amino-phenyl)-8-(4-fluoro-phenyl)-1,3-dihydro-benzo [b][1,4]diazepin-2-one]",210 to 217 °C (dec.)
14,"N#Cc1cccc(C2=Nc3ccc(-c4ccncc4)cc3NC(=O)C2)c1 [Example 44, 3-(4-Oxo-7-pyridin-4-yl-4,5-dihydro-3H-benzo[b][1,4]diazepin-2-yl)-benzonitrile]",> 200 °C (dec.)
15,"CC(C)(C)C(=O)N1CC=C(C#Cc2ccc3c(c2)NC(=O)CC(c2cccc(C#N)c2)=N3)CC1 [Example 143, 3-{7-[1-(2,2-Dimethyl-propionyl)-1,2,3,6-tetrahydro-pyridin-4-ylethynyl]-4-oxo-4,5-dihydro-3H-benzo [b][1,4]diazepin-2-yl}-benzonitrile]",219 °C
16,"O=C1CC(c2cccc(-n3cnnn3)c2)=Nc2ccc(-c3ccccc3F)cc2N1 [Example 88, 8-(2-Fluoro-phenyl)-4-(3-tetrazol-1-yl-phenyl)-1,3-dihydro-benzo [b][1,4]diazepin-2-one]",179 to 180 °C
17,"CS(=O)(=O)N1CC=C(C#Cc2ccc3c(c2)NC(=O)CC(c2cccc(C#N)c2)=N3)CC1 [Example 142, 3-[7-(1-Methanesulfonyl-1,2,3,6-tetrahydro-pyridin-4-ylethynyl)-4-oxo-4,5-dihydro-3H-benzo[b][1,4]diazepin-2-yl]-benzonitrile]",235 °C
18,"N#Cc1ccsc1C1=CC(=O)Nc2cc(-c3ccccc3F)ccc2N1 [Example 84, 2-[7-(2-Fluoro-phenyl)-4-oxo-4,5-dihydro-1H-benzo [b][1,4]diazepin-2-yl]-thiophene-3-carbonitrile]",238 to 240 °C

row,Compound,melting point
1,"CC(=O)N1CC=C(c2ccc3c(c2)NC(=O)CC(c2cccc(C#N)c2)=N3)CC1 [Example 47, 3-[7-(1-Acetyl-1,2,3,6-tetrahydro-pyridin-4-yl)-4-oxo-4,5-dihydro-3H-benzo [b][1,4]diazepin-2-yl]-benzonitrile]",220 to 222 °C (dec.)
2,"N#Cc1cccc(C2=Nc3ccc(-c4ccccn4)cc3NC(=O)C2)c1 [Example 28, 3-(4-Oxo-7-pyridin-2-yl-4,5-dihydro-3H-benzo [b][1,4]diazepin-2-yl)-benzonitrile]",243 to 244 °C (dec.)
3,"N#Cc1cccc(C2=Nc3ccc(C#Cc4cccs4)cc3NC(=O)C2)c1 [Example 50, 3-(4-Oxo-7-thiophen-2-ylethynyl-4,5-dihydro-3H-benzo [b][1,4]diazepin-2-yl)-benzonitrile]",235 to 238 °C (dec.)
4,"NC(=S)c1cccc(C2=Nc3ccc(-c4ccc(F)cc4)cc3NC(=O)C2)c1 [Example 149, 3-[7-(4-Fluoro-phenyl)-4-oxo-4,5-dihydro-3H-benzo [b][1,4]diazepin-2-yl]-thiobenzamide]",267 to 270 °C (dec.)
5,"N#Cc1ccc(-c2ccc3c(c2)NC(=O)CC(c2cccc(C#N)c2)=N3)cc1 [Example 65, 3-[7-(4-Cyano-phenyl)-4-oxo-4,5-dihydro-3H-benzo [b][1,4]diazepin-2-yl]-benzonitrile]",240 °C (dec.)
6,"CCOC(=O)c1csc(-c2cc(C3=Nc4ccc(-c5ccc(F)cc5)cc4NC(=O)C3)ccn2)n1 [Example 155, 2-{4-[7-(4-Fluoro-phenyl)-4-oxo-4,5-dihydro-3H-benzo[b][1,4]diazepin-2-yl]-pyridin-2-yl}-thiazole-4-carboxylic Acid Ethyl Ester]",238 to 240 °C (dec.)
7,"N#Cc1cccc(C2=Nc3ccc(-c4cccs4)cc3NC(=O)C2)c1 [Example 24, 3-(4-Oxo-7-thiophen-2-yl-4,5-dihydro-3H-benzo[b][1,4]diazepin-2-yl)-benzonitrile]",> 250 °C (dec.)
8,"O=C1CC(c2cccc(I)c2)=Nc2ccc(C#Cc3ccccc3)cc2N1 [Example 11, 4-(3-Iodo-phenyl)-8-phenylethynyl-1,3-dihydro-benzo[b][1,4]diazepin-2-one]",227 to 229 °C (dec.)
9,"CC(C)(C)OC(=O)N1CC=C(C#Cc2ccc3c(c2)NC(=O)CC(c2cccc(C#N)c2)=N3)CC1 [Example 139, 4-[2-(3-Cyano-phenyl)-4-oxo-4,5-dihydro-3H-benzo [b][1,4]diazepin-7-ylethynyl]-3,6-dihydro-2H-pyridine-1-carboxylic acid tert.-butyl ester]",239 °C
10,"Cc1noc(-c2cccc(C3=Nc4ccc(-c5ccc(F)cc5)cc4NC(=O)C3)c2)n1 [Example 169, 8-(4-Fluoro-phenyl)-4-[3-(3-methyl-[1,2,4]oxadiazol-5-yl)-phenyl]-1,3-dihydro-benzo[b][1,4]diazepin-2-one]",266 to 268 °C
11,"N#Cc1cccc(C2=Nc3ccc(C#Cc4ccccc4F)cc3NC(=O)C2)c1 [Example 131, 3-[7-(2-Fluoro-phenylethynyl)-4-oxo-4,5-dihydro-3H-benzo[b][1,4]diazepin-2-yl]-benzonitrile]",213 to 214 °C
12,"N#Cc1cccc(C2=Nc3ccc(-c4ccc(-c5ccccc5)cc4)cc3NC(=O)C2)c1 [Example 54, 3-(7-Biphenyl-4-yl-4-oxo-4,5-dihydro-3H-benzo [b][1,4]diazepin-2-yl)-benzonitrile]",251 to 253 °C
13,"Cc1cn(-c2cccc(C3=Nc4ccc(-c5ccc(F)cc5)cc4NC(=O)C3)c2)c(C)n1 [Example 89, 4-[3-(2,4-Dimethyl-imidazol-1-yl)-phenyl]-8-(4-fluoro-phenyl)-1,3-dihydro-benzo[b][1,4]diazepin-2-one]",188 °C
14,"O=C1CC(c2cccs2)=Nc2ccc(-c3ccc(=O)[nH]c3)cc2N1 [Example 41, 8-(6-Oxo-1,6-dihydro-pyridin-3-yl)-4-thiophen-2-yl-1,3-dihydro-benzo [b][1,4]diazepin-2-one]",> 250 °C
15,"Cc1nnc(-c2cccc(C3=Nc4ccc(-c5ccc(F)cc5)cc4NC(=O)C3)c2)o1 [Example 165, 8-(4-Fluoro-phenyl)-4-[3-(5-methyl-[1,3,4]oxadiazol-2-yl)-phenyl]-1,3-dihydro-benzo[b][1,4]diazepin-2-one]",254 to 256 °C (dec.)
16,"O=C1CC(c2cccc(-n3ccnc3)c2)=Nc2ccc(-c3ccc(OCc4ccccc4)nc3)cc2N1 [Example 74, 8-(6-Benzyloxy-pyridin-3-yl)-4-(3-imidazol-1-yl-phenyl)-1,3-dihydro-benzo [b][1,4]-diazepin-2-one]",225 to 231 °C
17,"N#Cc1cccc(C2=Nc3ccc(-c4ccc(OC(F)(F)F)cc4)cc3NC(=O)C2)c1 [Example 43, 3-[4-Oxo-7-(4-trifluoromethoxy-phenyl)-4,5-dihydro-3H-benzo [b][1,4]diazepin-2-yl]-benzonitrile]",237 to 241 °C (dec.)
18,"Cc1nccn1-c1cccc(C2=Nc3ccc(-c4ccc(F)cc4)cc3NC(=O)C2)c1 [Example 82, 8-(4-Fluoro-phenyl)-4-[3-(2-methyl-imidazol-1-yl)-phenyl]-1,3-dihydro-benzo[b][1,4]diazepin-2-one]",227 °C
